{"source": "patent US7951812B2", "about": "“Substituted pyrrolo[2,3-d]pyrimidines as antifolates” (Chelsea Therapeutics, Inc., priority 2007, dated 2011)", "type_in_all_cases": "biochemical", "key": {"[1]": {"target": "T1, DHFR in CCRF-CEM human leukemia cells (Homo sapiens, UniProt P00374)", "T1 construct": "endogenous in cells; host or cells: CCRF-CEM", "T1 sequence (P00374 1-187)": "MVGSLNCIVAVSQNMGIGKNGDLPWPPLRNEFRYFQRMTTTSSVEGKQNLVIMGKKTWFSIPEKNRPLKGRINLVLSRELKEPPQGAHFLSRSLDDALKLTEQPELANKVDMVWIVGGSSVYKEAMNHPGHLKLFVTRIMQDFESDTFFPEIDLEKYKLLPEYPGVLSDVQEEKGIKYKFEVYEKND", "assay": "DHFR enzyme inhibition assay", "details": "DHFR from CCRF-CEM cells, pre-incubation with NADPH 3 minutes at 37° C."}, "GARFT": {"target": "T2, GARFT (Homo sapiens, UniProt P22102)", "T2 sequence (P22102 1-1010)": "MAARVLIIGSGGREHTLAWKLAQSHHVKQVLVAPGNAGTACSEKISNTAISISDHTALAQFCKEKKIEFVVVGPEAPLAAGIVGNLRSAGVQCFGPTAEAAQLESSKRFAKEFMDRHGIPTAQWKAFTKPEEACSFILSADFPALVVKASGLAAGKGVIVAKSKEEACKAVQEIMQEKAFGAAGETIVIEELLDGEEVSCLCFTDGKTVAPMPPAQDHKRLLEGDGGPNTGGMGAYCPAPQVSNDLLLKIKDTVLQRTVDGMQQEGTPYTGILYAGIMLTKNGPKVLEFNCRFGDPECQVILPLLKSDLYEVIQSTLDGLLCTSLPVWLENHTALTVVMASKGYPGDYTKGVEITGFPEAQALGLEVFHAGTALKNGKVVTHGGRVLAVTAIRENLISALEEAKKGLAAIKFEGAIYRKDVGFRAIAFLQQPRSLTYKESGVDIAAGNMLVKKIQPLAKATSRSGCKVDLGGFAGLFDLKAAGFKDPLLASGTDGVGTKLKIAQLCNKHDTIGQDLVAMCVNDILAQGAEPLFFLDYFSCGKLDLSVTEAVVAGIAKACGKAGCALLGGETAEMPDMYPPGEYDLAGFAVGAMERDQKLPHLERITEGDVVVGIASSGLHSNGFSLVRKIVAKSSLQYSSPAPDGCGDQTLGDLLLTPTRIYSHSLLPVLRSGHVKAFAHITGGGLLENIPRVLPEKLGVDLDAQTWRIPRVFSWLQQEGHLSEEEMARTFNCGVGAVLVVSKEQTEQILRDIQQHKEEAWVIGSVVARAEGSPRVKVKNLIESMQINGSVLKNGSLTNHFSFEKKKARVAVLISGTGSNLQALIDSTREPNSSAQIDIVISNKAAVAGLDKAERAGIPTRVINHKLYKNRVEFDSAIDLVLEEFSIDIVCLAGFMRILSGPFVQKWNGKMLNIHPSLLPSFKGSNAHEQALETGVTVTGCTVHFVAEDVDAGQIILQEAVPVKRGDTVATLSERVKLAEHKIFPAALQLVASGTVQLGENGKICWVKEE", "assay": "GARFT inhibition (similar tests)", "details": "read-out: IC50 against GARFT", "from_the_text": "(§1) The above data illustrates the selectivity of the novel antifolates in enzyme inhibition. […] As previously noted, such selectivity in activity can be useful for improving activity against specific conditions while avoiding undesirable side effects."}, "[2]": {"target": "T3, TS in CCRF-CEM human T-lymphoblastic leukemia cells (Homo sapiens, UniProt P04818)", "T3 construct": "endogenous in cells; host or cells: CCRF-CEM", "T3 sequence (P04818 whole entry)": "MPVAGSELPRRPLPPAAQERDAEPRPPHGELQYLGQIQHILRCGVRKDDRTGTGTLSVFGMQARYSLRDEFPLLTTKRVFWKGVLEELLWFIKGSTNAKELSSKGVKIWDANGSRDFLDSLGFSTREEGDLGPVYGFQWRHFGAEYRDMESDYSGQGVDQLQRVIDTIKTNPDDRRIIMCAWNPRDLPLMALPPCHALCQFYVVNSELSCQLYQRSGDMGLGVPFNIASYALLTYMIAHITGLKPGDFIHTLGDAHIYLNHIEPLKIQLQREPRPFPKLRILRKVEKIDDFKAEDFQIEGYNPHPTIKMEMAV", "assay": "TS enzyme inhibition assay", "details": "TS from CCRF-CEM cells, up to five graded concentrations; read-out: IC50 against TS", "experimental": "The inhibitory potency against TS in CCRF-CEM human T-lymphoblastic leukemia cells was assessed by introducing up to five graded concentrations of compounds into the reaction mixture, initiating the reaction by addition of TS, and quantitating remaining TS activity."}, "AICART": {"target": "AICART (Homo sapiens, UniProt P31939)", "sequence (P31939 whole entry)": "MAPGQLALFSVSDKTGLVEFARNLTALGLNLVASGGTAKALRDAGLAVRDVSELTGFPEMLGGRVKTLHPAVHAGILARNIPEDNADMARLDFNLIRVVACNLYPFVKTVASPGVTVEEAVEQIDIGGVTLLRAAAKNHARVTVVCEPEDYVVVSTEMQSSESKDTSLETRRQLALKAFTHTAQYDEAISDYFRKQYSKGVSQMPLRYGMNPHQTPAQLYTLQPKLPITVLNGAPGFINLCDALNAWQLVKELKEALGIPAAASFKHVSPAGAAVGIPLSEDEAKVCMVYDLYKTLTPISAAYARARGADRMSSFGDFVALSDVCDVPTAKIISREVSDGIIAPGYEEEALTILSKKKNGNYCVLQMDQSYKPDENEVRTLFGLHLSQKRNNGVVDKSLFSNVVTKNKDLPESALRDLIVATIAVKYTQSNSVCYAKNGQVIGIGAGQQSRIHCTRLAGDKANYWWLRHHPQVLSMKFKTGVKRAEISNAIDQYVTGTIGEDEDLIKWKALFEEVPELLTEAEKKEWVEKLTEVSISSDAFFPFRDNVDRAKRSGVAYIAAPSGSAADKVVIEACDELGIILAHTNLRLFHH", "assay": "AICART inhibition (similar tests)", "details": "read-out: IC50 against AICART", "from_the_text": "as §1"}}, "note": "Counter-ions that a name gives are not always drawn."}
{"compound": "C=C(CC(NC(=O)c1ccc(CCc2c[nH]c3nc(N)nc(N)c23)cc1)C(=O)O)C(=O)O", "note": "(racemic) [CHL-003, N-{4-[2-(2,4-diamino-7H-pyrrolo[2,3-d]pyrimidin-5-yl)ethyl]benzoyl}-4-methylene-glutamic acid]", "values": [{"measurement": "IC50", "setting": "[1]", "result": 0.0125, "unit": "µM"}, {"measurement": "IC50", "setting": "GARFT", "result": "> 50", "unit": "µM"}, {"measurement": "IC50", "setting": "[2]", "result": "> 50", "unit": "µM"}, {"measurement": "IC50", "setting": "AICART", "result": "> 50", "unit": "µM"}]}
{"compound": "C=C(C[C@H](NC(=O)c1ccc(CCc2c[nH]c3nc(N)nc(N)c23)cc1)C(=O)O)C(=O)O", "note": "[CHL1007, (S)-N-{4-[2-(2,4-diamino-7H-pyrrolo[2,3-d]pyrimidin-5-yl)ethyl]benzoyl}-4-methylene-L-glutamic acid disodium salt]", "values": [{"measurement": "IC50", "setting": "[1]", "result": 0.0052, "unit": "µM"}]}
{"compound": "C=C(CC(NC(=O)c1ccc(CCc2ccc3nc(N)nc(N)c3c2)cc1)C(=O)O)C(=O)O", "note": "(stereo not shown) [Mobiltrex, 2-{4-[2-(2,4-diamino-quinazolin-6-yl)-ethyl] -benzoylamino}-4-methylidene-pentanedioic acid, reference compound]", "values": [{"measurement": "IC50", "setting": "[1]", "result": 0.0011, "unit": "µM"}, {"measurement": "IC50", "setting": "[2]", "result": 8, "unit": "µM"}]}
